# Data published in PubChem BioAssay (NCI).
# “And” between values parts separate entries of the source, which are not always exact repeats. Equal values may be shown once.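 1) Cells in 96-well plates. 2) Compound, 48 h, 5 concentrations. 3) Linear interpolation between surrounding doses. 4) Unreached endpoint = highest concentration. At the GI50, growth is halved. The concentration for full growth arrest is given as TGI.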
# Tested on: HOP-62 NSCLC
# Assay: NCI tumour cell line growth inhibition, 48 h
Compound,TGI,GI50
CCOC(=O)c1c(CN2CCCC2)n(-c2ccccc2)c2cc(Br)c(O)cc12,26.7 µM,
COc1cccc(Nc2nc(-c3cccs3)nc3cc(OC)c(OC)cc23)c1,62.7 µM,
Nn1c(-c2ccccc2)n[nH]c1=O,> 100 µM,
O=C1c2cc3c(cc2-c2c1c1ccc(F)cc1c(=O)n2C[C@H](O)[C@@H](O)[C@H](O)CO)OCO3,0.27 µM,0.0324 µM
Nn1c(Nc2ccc(S(=O)(=O)Nc3ncccn3)cc2)nnc(/C=C/c2c(O)ccc3ccccc23)c1=O,> 100 µM,
Cc1cc(-c2nc3ccc(F)cc3s2)ccc1NC(=O)[C@H](C)N,24.5 µM,
C=CC1(CC/C(=C\[N+](=O)[O-])c2ccc(OC)c(OC)c2)OCC(C)(C)CO1,60.7 µM,
Cc1cc(Nc2ccc(S(=O)(=O)O)c3cc(S(=O)(=O)O)cc(S(=O)(=O)O)c23)c2ccccc2n1,> 100 µM,
Cc1cc(C)nc(NS(=O)(=O)c2ccc(NC(=O)c3ccc4nc5ccccc5c(Nc5ccc(S(N)(=O)=O)cc5)c4c3)cc2)n1,> 100 µM,
Nc1c(-c2ccc(Cl)c(Cl)c2)c2ccc([N+](=O)[O-])cc2c(=O)n1-c1nc2ccccc2s1,> 38.6 µM,
NS(=O)(=O)c1nnc(NC(=O)Nc2ccc(Cl)c(Cl)c2)s1,39.7 µM,
COC(=O)c1c(C)nc2c1cc(O)c1[nH]c(C)c(C)nc12,71.7 µM,
Cn1c2ccc3cc2c(=S)c2cc(ccc21)OCCOCCOCCOCCOCCOCCO3,> 10 µM,
O=[N+]([O-])c1cc(C=NC23CC4CC(CC(C4)C2)C3)ccc1Cl,17.7 µM,
COc1cc(S(=O)(=O)Nc2nc(-c3ccc(N4C(=O)C(CC(=O)O)SC4c4cccs4)cc3)cs2)ccc1Cl (centres undefined),> 100 µM,
CC(=O)N(C(=O)CC(=O)N1N=C(c2ccccc2)C(N=Nc2ccccc2[N+](=O)[O-])C1=O)c1ccc(Cl)cc1 (centres undefined),> 10 µM,
Oc1ccccc1CNCc1nc2ccccc2[nH]1,> 100 µM,
COc1ncc(/C=C2\OC(=O)c3ccccc32)c(OC)n1,66 µM,
CC(=O)Nn1c(=S)[nH]c2ccccc21,> 100 µM,
C[C@]12CCC3C4=C(CCC3C1CCC2=O)C(=O)[C@H]1O[C@H]1C4=O (some centres undefined),12.8 µM,
CCCCOC(=O)Nc1ccc(S(=O)(=O)Nc2ccccc2Cl)cc1,37.7 µM,
Oc1[nH]c2ccccc2c1N=Nc1nc(-c2ccc(Br)cc2)cs1,28.6 µM,
N#CC(Cc1ccccc1)N(CCC1=CCCCC1)C(c1ccccc1)c1ccccc1 (centres undefined),> 100 µM,

Compound,TGI,GI50
C#CCn1c(=O)c2ccccc2n(CC#C)c1=O,> 10 µM,
Nc1ncnc2c1[nH]c(=O)n2-c1ccccc1,> 100 µM,
[N-]=[N+]=NC(c1ccccc1)(c1ccccc1)c1ccccc1,42.2 µM,
CC1CN(C)c2ccccc2N=C1NN (centres undefined),> 100 µM,
C(=C(c1ccc(OC2CCCCO2)cc1)c1ccc(OC2CCCCO2)cc1)c1ccccc1 (centres undefined),2.3 µM,
COc1ccc(CN2C(=O)/C(=C\c3cc(OC)c(OC)c(OC)c3)c3ccccc32)cc1,4.98 µM,2.42 µM
N[C@@H](CCC(=O)NCP(=O)(O)O)C(=O)O,> 100 µM,
CCOP(=O)(OCC)C(F)(F)c1ccc(CC(NC(=O)OC(C)(C)C)C(=O)O)cc1 (centres undefined),> 10 µM,
COc1ccc(-c2[nH]c3c4c(nc5c(c24)C(=O)CC(C)(C)C5)CC(C)(C)C3)cc1,> 100 µM,
NC(=O)C(=Cn1c(=S)[nH]c2ccc([N+](=O)[O-])cc21)C(N)=O,> 100 µM,
O=C(C1OC1c1ccc(Br)cc1O)C12CC3CC(CC(C3)C1)C2 (centres undefined),67.9 µM,
Cc1ccc(N(Cc2ccccc2)Cc2ccccc2)cc1,> 100 µM,
c1ccc2c3[nH]c(c2c1)=Nc1ccc(cc1)-c1nc2cc(ccc2o1)N=c1[nH]c(c2ccccc12)=Nc1ccc2nc(oc2c1)-c1ccc(cc1)N=3,> 100 µM,
Nc1nc(-c2ccccc2)nc2oc(-c3cccs3)nc12,> 100 µM,
S=C(N/N=C(/c1ccccc1)c1ccccn1)N(Cc1ccccn1)Cc1ccccn1,3.17 µM,
O=c1[nH]c(=S)[nH]c2c1C(c1ccc([N+](=O)[O-])cc1)c1c([nH]c(=S)[nH]c1=O)O2,> 100 µM,
Cn1c(=O)c2c(nc3n2CC(C(=O)O)N3)n(C)c1=O (centres undefined),> 100 µM,
Cc1ccc(-c2cc(-c3ccco3)c(C#N)c(=S)n2C2OC(CO)C(O)C(O)C2O)cc1 (centres undefined),54.1 µM and > 100 µM,6.31 µM and 28 µM
Cc1oc2c(cc(O)c3cc(O)ccc32)c2cccc1-2,> 100 µM,
NC(N)=Nc1ccc(CC(N)NCC(=O)O)cc1 (centres undefined),> 25 µM,
O=C(Cc1ccc(O)c(O)c1)NCc1c[nH]c2ccccc12,> 100 µM,
COc1ccc(-n2c(C)nc3ccc(NC(=S)Nc4ccccc4)cc3c2=O)cc1,> 100 µM,
O=C(NCc1ccccc1)c1n[nH][nH]c1=O,> 100 µM,
